Consider two compounds from ChEMBL document CHEMBL5579892, “Rational Design, Synthesis, and Structure-Activity Relationship of a Novel Isoquinolinone-Based Series of HBV Capsid Assembly Modulators Leading to the Identification of Clinical Candidate AB-836” (J Med Chem, 2024).

≈ marks a conversion by molar mass, not a printed value. Calls of active or inactive are those of the source. No cut-off for these calls is given here. A value given as a limit tells only on which side of the number the result lay.

The subject of data set [1] is Hepatitis B virus. The experiment in a line: Antiviral activity against HBV infected in HepDE19 cells. The format is functional, organism-based.
Data set [2] can be described thus: Cytotoxicity against human HepDE19 cells by CellTiter-Glo analysis. It counts as toxicity, cell-based.
Data set [3] in a line: Microsomal stability in mouse liver microsomes assessed as intrinsic clearance. It counts as ADME, Microsome. The settings on record: read-out: CLH.
The nature of data set [4]: Microsomal stability in human liver microsomes assessed as intrinsic clearance. The settings on record: read-out: CLH. It counts as ADME, Microsome.
A further data set deals with T1, Cytochrome P450 1A2 (Homo sapiens, UniProt P05177).
T1 sequence (P05177 whole entry): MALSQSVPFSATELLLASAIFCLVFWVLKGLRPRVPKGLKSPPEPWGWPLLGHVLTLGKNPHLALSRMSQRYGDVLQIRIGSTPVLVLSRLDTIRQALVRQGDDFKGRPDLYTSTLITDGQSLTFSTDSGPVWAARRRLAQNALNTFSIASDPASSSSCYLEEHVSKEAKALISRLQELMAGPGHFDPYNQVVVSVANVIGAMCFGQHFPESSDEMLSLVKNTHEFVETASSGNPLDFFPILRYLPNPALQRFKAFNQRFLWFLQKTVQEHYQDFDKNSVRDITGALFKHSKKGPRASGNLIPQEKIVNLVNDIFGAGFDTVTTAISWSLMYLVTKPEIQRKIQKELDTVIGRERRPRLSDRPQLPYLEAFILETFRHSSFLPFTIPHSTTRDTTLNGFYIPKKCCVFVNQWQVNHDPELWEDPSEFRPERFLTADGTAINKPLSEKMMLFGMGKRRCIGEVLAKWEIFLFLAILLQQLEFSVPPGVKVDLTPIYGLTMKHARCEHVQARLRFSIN
The experiment in a line: Inhibition of CYP1A2 (unknown origin). It counts as ADME.

The target of another data set is T2, Cytochrome P450 2B6 (Homo sapiens, UniProt P20813).
T2 sequence (P20813 whole entry): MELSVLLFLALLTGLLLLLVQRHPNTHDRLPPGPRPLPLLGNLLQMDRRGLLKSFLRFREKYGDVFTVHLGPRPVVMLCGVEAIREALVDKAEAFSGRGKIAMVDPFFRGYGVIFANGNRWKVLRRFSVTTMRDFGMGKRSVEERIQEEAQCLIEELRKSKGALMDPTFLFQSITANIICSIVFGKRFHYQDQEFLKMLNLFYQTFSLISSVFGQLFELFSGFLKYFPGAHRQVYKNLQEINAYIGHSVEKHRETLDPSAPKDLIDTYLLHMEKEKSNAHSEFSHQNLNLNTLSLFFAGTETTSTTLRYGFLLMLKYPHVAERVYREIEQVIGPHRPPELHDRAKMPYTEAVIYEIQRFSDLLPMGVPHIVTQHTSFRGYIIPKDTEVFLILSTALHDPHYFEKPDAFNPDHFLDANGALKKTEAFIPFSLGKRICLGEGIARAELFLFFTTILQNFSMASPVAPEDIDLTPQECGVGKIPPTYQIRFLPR
The data set can be described thus: Inhibition of CYP2B6 (unknown origin). The format is ADME.

The target of the next data set is Cytochrome P450 2C9 (Homo sapiens, UniProt P11712). The data set can be described thus: Inhibition of CYP2C9 (unknown origin). It counts as ADME.
Cytochrome P450 2C9, sequence (P11712 whole entry): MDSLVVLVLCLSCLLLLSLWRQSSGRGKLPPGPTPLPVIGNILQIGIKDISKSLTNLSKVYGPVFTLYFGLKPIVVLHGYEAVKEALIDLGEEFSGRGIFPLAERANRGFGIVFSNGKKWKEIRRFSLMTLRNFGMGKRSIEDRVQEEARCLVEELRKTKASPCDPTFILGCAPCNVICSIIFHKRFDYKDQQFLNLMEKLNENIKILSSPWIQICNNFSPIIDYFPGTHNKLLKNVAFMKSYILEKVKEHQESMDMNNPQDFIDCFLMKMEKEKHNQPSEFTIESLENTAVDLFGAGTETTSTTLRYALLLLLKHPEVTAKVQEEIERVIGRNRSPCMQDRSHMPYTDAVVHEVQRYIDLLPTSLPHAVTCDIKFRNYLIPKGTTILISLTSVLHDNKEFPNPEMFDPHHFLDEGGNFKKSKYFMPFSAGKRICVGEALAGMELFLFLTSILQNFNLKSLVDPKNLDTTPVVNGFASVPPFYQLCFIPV
The target of another data set is Cytochrome P450 2C19 (Homo sapiens, UniProt P33261). The data set can be described thus: Inhibition of CYP2C19 (unknown origin). It counts as ADME.
Cytochrome P450 2C19, sequence (P33261 whole entry): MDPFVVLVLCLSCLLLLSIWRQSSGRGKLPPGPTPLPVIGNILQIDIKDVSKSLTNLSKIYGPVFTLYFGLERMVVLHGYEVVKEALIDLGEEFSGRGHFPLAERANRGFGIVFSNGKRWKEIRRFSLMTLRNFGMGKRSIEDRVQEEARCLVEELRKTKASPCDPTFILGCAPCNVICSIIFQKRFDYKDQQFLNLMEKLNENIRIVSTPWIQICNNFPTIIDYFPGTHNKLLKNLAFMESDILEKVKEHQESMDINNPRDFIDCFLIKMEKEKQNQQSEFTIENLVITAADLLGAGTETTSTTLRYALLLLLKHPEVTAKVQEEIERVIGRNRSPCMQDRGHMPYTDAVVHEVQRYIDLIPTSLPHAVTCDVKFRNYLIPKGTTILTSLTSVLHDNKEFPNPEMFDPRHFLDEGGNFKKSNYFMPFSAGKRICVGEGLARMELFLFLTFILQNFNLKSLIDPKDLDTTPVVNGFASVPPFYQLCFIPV
The target in the next data set is Cytochrome P450 2D6 (Homo sapiens, UniProt P10635). The experiment in a line: Inhibition of CYP2D6 (unknown origin). The format is ADME.
Cytochrome P450 2D6, sequence (P10635 whole entry): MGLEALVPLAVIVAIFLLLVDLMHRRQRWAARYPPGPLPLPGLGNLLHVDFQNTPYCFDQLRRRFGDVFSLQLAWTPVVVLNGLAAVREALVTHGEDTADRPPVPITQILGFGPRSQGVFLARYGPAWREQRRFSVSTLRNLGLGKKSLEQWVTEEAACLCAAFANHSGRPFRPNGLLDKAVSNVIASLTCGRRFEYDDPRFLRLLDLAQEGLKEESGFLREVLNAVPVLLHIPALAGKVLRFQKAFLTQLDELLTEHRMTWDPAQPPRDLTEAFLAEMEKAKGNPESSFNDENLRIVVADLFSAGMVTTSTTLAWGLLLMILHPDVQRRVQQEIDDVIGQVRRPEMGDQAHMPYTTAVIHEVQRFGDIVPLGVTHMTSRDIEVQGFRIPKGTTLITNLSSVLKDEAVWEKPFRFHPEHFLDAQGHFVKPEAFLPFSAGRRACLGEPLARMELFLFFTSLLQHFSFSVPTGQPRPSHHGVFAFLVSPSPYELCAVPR
The next data set has as its target Cytochrome P450 3A4 (Homo sapiens, UniProt P08684). The experiment in a line: Inhibition of CYP3A4 (unknown origin). The format is ADME.
Data set [5] can be described thus: Kinetic solubility in PBS at pH 7.4. The format is physicochemical. As to conditions: read-out: Kinetic_solubility.
Data set [6] is described as follows: Half-life in CD-1 mouse at 10 mg/kg, po. It counts as ADME, organism-based. As to conditions: in vivo.
Data set [7] in a line: Half-life in CD-1 mouse at 2 mg/kg, iv. The format is ADME, organism-based. The settings on record: in vivo.
The nature of data set [8]: AUC (0 to infinity) in CD-1 mouse at 10 mg/kg, po. The format is ADME, organism-based. The settings on record: in vivo.
Data set [9] in a line: AUC (0 to infinity) in CD-1 mouse at 2 mg/kg, iv. It counts as ADME, organism-based. As to conditions: in vivo.
Data set [10] in a line: Oral bioavailability in CD-1 mouse at 10 mg/kg. It counts as ADME, organism-based. The settings on record: in vivo.
The test system of data set [11] is Hepatitis B virus. The data set can be described thus: Antiviral activity against HBV infected in po dosed NOD.CB17-Prkdcscid/J mouse assessed as reduction in viral DNA administered once daily or twice daily for 7 days by qPCR analysis. The settings on record: dose 3-30 mg/kg, time 7.0 day. The format is functional, organism-based.
The test system of data set [12] is Hepatitis B virus. The experiment in a line: Antiviral activity against HBV infected in NOD.CB17-Prkdcscid/J mouse assessed as log10 reduction in viral DNA at 30 mg/kg, po administered twice daily for 7 days by qPCR analysis. The settings on record: time 7 day. It counts as functional.
Data set [13] relates to Hepatitis B virus. The experiment in a line: Antiviral activity against HBV infected in NOD.CB17-Prkdcscid/J mouse assessed as log10 reduction in viral DNA at 10 mg/kg, po administered twice daily for 7 days by qPCR analysis. It counts as functional. The settings on record: time 7 day.
For data set [14], the system named is Hepatitis B virus. The experiment in a line: Antiviral activity against HBV infected in NOD.CB17-Prkdcscid/J mouse assessed as log10 reduction in viral DNA at 30 mg/kg, po administered once daily for 7 days by qPCR analysis. It counts as functional. As to conditions: time 7 day.
Data set [15] can be described thus: Microsomal stability in rat liver microsomes assessed as intrinsic clearance. As to conditions: read-out: CLH. It counts as ADME, Microsome.
A short description of data set [16]: Microsomal stability in monkey liver microsomes assessed as intrinsic clearance. It counts as ADME, Macaca mulatta, Microsome. The settings on record: rhesus monkey, read-out: CLH.
A short description of data set [17]: Clearance in CD-1 mouse at 2 mg/kg, iv. The settings on record: in vivo. It counts as ADME, organism-based.
A short description of data set [18]: Drug concentration in CD-1 mouse liver at 10 mg/kg, po measured after 24 hrs. It counts as ADME, organism-based. As to conditions: read-out: Ct.
A short description of data set [19]: Drug concentration in CD-1 mouse liver assessed as fold increase in EC90 concentration required for antiviral activity against HBV infected in HepDE19 cells at 10 mg/kg, po measured after 24 hrs. The settings on record: in vivo. It counts as ADME, organism-based.
Data set [20] is described as follows: AUC (0 to infinity) in rat at 10 mg/kg, po. The format is ADME, organism-based. The settings on record: in vivo.
The nature of data set [21]: AUC (0 to infinity) in monkey at 10 mg/kg, po. The format is ADME, organism-based, Macaca mulatta. The settings on record: rhesus monkey, in vivo.
Data set [22] is described as follows: Clearance in rat at 2 mg/kg, iv. It counts as ADME, organism-based. The settings on record: in vivo.
The nature of data set [23]: Clearance in monkey at 2 mg/kg, iv. It counts as ADME, organism-based, Macaca mulatta. As to conditions: rhesus monkey, in vivo.
A short description of data set [24]: Half-life in rat at 10 mg/kg, po. The format is ADME, organism-based. The settings on record: in vivo.
Data set [25] in a line: Half-life in monkey at 10 mg/kg, po. The settings on record: rhesus monkey, in vivo. The format is ADME, organism-based, Macaca mulatta.
Data set [26] can be described thus: Drug concentration in rat liver at 10 mg/kg, po measured after 24 hrs. It counts as ADME, organism-based. The settings on record: read-out: Ct.
The nature of data set [27]: Drug concentration in rat liver assessed as fold increase in EC90 concentration required for antiviral activity against HBV infected in HepDE19 cells at 10 mg/kg, po measured after 24 hrs. The format is ADME, organism-based. As to conditions: in vivo.
In data set [28] the test system is Hepatitis B virus. The data set can be described thus: Antiviral activity against HBV infected in NOD.CB17-Prkdcscid/J mouse assessed as log10 reduction in viral DNA at 3 mg/kg, po administered once daily for 7 days by qPCR analysis. The format is functional. The settings on record: time 7 day.
Data set [29] has as its system Hepatitis B virus. The experiment in a line: Antiviral activity against HBV infected in NOD.CB17-Prkdcscid/J mouse assessed as log10 reduction in viral DNA at 10 mg/kg, po administered once daily for 7 days by qPCR analysis. It counts as functional. As to conditions: time 7 day.
Data set [30] relates to Hepatitis B virus. The data set can be described thus: Antiviral activity against HBV infected in HepDE19 cells assessed as effect on pgRNA core protein at 1 uM. The format is functional, organism-based.
The test system of data set [31] is Hepatitis B virus. The data set can be described thus: Antiviral activity against HBV infected in HepDE19 cells assessed as effect on capsid particle formation at 1 uM. The format is functional, organism-based.
In data set [32] the test system is Hepatitis B virus. The experiment in a line: Antiviral activity against HBV infected in HepG2-hNTCP-C4 cells assessed as inhibition of HBsAg formation preincubated with compound followed by viral infection. It counts as functional, organism-based.
Data set [33] has as its system Hepatitis B virus. The data set can be described thus: Antiviral activity against HBV infected in HepG2-hNTCP-C4 cells assessed as inhibition of cccDNA formation preincubated with compound followed by viral infection. It counts as functional, organism-based.
The subject of data set [34] is Hepatitis B virus. The data set can be described thus: Antiviral activity against HBV infected in HepG2-hNTCP-C4 cells assessed as inhibition of HBsAg formation preincubated with virus followed by compound addition. It counts as functional, organism-based.
The test system of data set [35] is Hepatitis B virus. The experiment in a line: Antiviral activity against HBV infected in HepG2-hNTCP-C4 cells assessed as inhibition of cccDNA formation preincubated with virus followed by compound addition. The format is functional, organism-based.

Cytochrome P450 3A4, sequence (P08684 whole entry): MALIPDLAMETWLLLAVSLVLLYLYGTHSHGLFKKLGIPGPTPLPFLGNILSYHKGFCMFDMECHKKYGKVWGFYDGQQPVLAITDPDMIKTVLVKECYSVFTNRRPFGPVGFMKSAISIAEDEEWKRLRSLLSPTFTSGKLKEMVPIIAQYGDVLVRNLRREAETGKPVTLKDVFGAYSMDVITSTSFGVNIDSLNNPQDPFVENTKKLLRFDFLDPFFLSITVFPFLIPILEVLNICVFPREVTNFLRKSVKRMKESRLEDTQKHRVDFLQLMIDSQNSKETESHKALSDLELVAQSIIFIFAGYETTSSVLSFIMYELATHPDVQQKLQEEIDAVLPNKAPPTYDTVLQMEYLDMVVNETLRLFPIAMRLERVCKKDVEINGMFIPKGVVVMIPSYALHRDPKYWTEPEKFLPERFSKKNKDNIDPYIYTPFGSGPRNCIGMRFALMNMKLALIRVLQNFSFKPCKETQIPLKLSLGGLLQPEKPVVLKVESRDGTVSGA

`CC(c1c[nH]c(=O)c2ccccc12)N(C)C(=O)Nc1ccc(F)c(Cl)c1` (stereo not drawn): in the data set on Hepatitis B virus [1], the 50% effective concentration (EC50) came out at 0.045 µM. In addition, in [2], the CC50 was above 25 µM. Further, the microsomal CLint in [3] was 29 µL/min/mg; in data set [4] it was 44 µL/min/mg. Besides, the IC50 against Cytochrome P450 1A2, against Cytochrome P450 2B6, against Cytochrome P450 2C9, on Cytochrome P450 2C19, against Cytochrome P450 2D6 and at Cytochrome P450 3A4 was above 20 µM each time. In addition, the solubility kinetic in data set [5] was determined as 135 µM (≈ 50.5 µg/mL). Further, the figures for the half-life in [6] and in [7] were 2.2 h and 2.4 h, respectively. The results for the AUC(0-inf) in data set [8] and in data set [9] were 13800 ng·h/mL and 3520 ng·h/mL, respectively. This compound returned a bioavailability in data set [10] of 80%. Moreover, in the data set on Hepatitis B virus [11], the Activity result was “Dose-Dependent Effect”. Further, the “log(activity)” value in the data set with Hepatitis B virus [12] is on record as 1.4; in the data set with Hepatitis B virus [13], 0.6; in the data set on Hepatitis B virus [14], 0.3.
In the case of `C[C@H](c1c[nH]c(=O)c2cc(F)c(F)cc12)N(C)C(=O)Nc1ccc(F)c(C#N)c1`, the EC50 is 0.01 µM in the data set with Hepatitis B virus [1], 0.197 µM with Hepatitis B virus [32] and 0.175 µM with Hepatitis B virus [33]. The compound also gave a CC50 in [2] above 25 µM. The microsomal CLint in data set [3] came to 10 µL/min/mg; in data set [4], 31 µL/min/mg; in data set [15], 46 µL/min/mg; in data set [16], 34 µL/min/mg. Besides, the solubility kinetic in [5] came out at 120 µM (≈ 48 µg/mL). Besides, the half-life is 3.1 h in [6], 4.4 h in data set [24] and 14 h in [25]. In addition, the AUC(0-inf) in data set [8] came out at 13000 ng·h/mL; in data set [20] it was 5740 ng·h/mL; in [21], 9270 ng·h/mL. In addition, the values for the clearance in data set [17], in data set [22] and in data set [23] were 13 mL/min/kg, 11 mL/min/kg and 9 mL/min/kg, respectively. The figures for the concentration at 24 h in data set [18] and in data set [26] were 395 ng/mL and 334 ng/mL, respectively. In addition, the “fold change (FC)” value in data set [19] is listed as 25; in [27], 20. Besides, the “log(activity)” value came out at 1.4 with Hepatitis B virus [28] and 2.5 with Hepatitis B virus [29]. The result in the data set on Hepatitis B virus [30], with Hepatitis B virus [31], in the data set on Hepatitis B virus [34] and in the data set with Hepatitis B virus [35] was inactive.
